Assay [1] has as its target BtNosP (Burkholderia thailandensis, UniProt Q2T7C0). The experiment in a line: biochemical. Format: binding.
Assay [2] deals with T1, BtNosP (Burkholderia thailandensis, UniProt Q2T7C0).
T1 sequence (Q2T7C0 1-386): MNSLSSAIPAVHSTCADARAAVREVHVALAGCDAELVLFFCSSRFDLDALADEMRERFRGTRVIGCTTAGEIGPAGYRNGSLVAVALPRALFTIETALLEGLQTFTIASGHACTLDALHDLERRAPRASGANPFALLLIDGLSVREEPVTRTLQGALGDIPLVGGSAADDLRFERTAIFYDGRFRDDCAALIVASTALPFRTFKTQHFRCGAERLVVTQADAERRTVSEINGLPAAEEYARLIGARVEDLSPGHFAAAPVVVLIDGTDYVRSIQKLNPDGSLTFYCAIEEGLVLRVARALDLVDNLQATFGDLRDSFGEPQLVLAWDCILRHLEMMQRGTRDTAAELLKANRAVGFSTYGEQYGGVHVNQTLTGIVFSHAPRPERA
Format: binding.

By Kd is commonly meant a measure of binding affinity in units of concentration. In turn, `C=CC1=C(C)C2=Cc3c(C=C)c(C)c4[n]3[Fe]([Cl])[n]3c(c(C)c(CCC(=O)O)c3=CC3=NC(=C4)C(C)=C3CCC(=O)O)=CC1=N2` [hemin] had a Kd on BtNosP [1] of 0.53 ± 0.12 µM.
In the case of `[N]=O` [nitric oxide], the “UV-vis spectroscopy of Fe(II)-NO complex; CO/dithionite trap NO dissociation rat” value on BtNosP [2] is “(1.73 ± 0.6) × 10^−4 s^−1”.

Values taken from publication PMC10478957 (Biochemistry, 2023).
